#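 1) Cells in 96-well plates. 2) Compound, 48 h, 5 concentrations. 3) Linear interpolation between surrounding doses. 4) Unreached endpoint = highest concentration. At the TGI there is no net growth.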
# Legend:
# Assay in all cases: growth of human tumour cells (NCI), 48 h
# SNB-75 CNS = system: SNB-75 CNS
# SK-OV-3 ovarian = system: SK-OV-3 ovarian
# RPMI-8226 leukemia = system: RPMI-8226 leukemia
# SK-MEL-5 melanoma = system: SK-MEL-5 melanoma
# IGROV1 ovarian = system: IGROV1 ovarian
# A549 NSCLC = system: A549 NSCLC
# M14 melanoma = system: M14 melanoma
# SF-539 CNS = system: SF-539 CNS
# EKVX NSCLC = system: EKVX NSCLC
# LOX IMVI melanoma = system: LOX IMVI melanoma
# RXF 393 renal = system: RXF 393 renal
# HOP-62 NSCLC = system: HOP-62 NSCLC
# NCI-H522 lung = system: NCI-H522 lung
# PC-3 prostate = system: PC-3 prostate
# MCF7 breast = system: MCF7 breast
# T-47D breast = system: T-47D breast
Compound,TGI (SNB-75 CNS) [µM],TGI (SK-OV-3 ovarian) [µM],TGI (RPMI-8226 leukemia) [µM],TGI (SK-MEL-5 melanoma) [µM],TGI (IGROV1 ovarian) [µM],TGI (A549 NSCLC) [µM],TGI (M14 melanoma) [µM],TGI (SF-539 CNS) [µM],TGI (EKVX NSCLC) [µM],TGI (LOX IMVI melanoma) [µM],TGI (RXF 393 renal) [µM],TGI (HOP-62 NSCLC) [µM],TGI (NCI-H522 lung) [µM],TGI (PC-3 prostate) [µM],TGI (MCF7 breast) [µM],TGI (T-47D breast) [µM]
CC1(O)CC2C(CC1SC1CC3C(CC1(C)O)C3(C)C)C2(C)C (stereo not given),80.1,> 100,> 100,59.7,> 100,> 100,> 100,> 100,83.9,–,–,–,–,–,–,–
CCOC(=O)C(C)NC(=O)NC12CC3CC(CC(F)(C3)C1)C2 (stereo not given),> 100,> 100,> 100,> 100,> 100,> 100,> 100,> 100,> 100,> 100,86.6,> 100,> 100,–,–,–
COc1cc([C@@H]2c3cc4c(cc3[C@@H](NCc3ccccc3F)C3COC(=O)[C@@H]32)OCO4)cc(OC)c1O (stereo not given in full),42.6,9.45,13.1,7.86,20.5,15.1,13.6,16.2,45.9,16.7,54.7,7.74,10.2,–,–,–
Cc1cc(Cl)ccc1NC(=O)/C(=N\NC(C)(C)C)C(C#N)c1nc(-c2ccc([N+](=O)[O-])cc2)cs1 (stereo not given),> 100,> 100,> 100,> 100,> 100,> 100,> 100,> 100,> 100,> 100,–,> 100,> 100,–,–,–
O=C1/C(=C/c2ccccc2Cl)COc2ccc(Br)cc21,> 100,85,–,–,> 100,> 100,–,> 100,> 100,> 100,> 100,> 100,80.1,–,–,–
COc1ccc(OC2(c3cc(OC)ccc3OC)OC(=O)c3ccccc32)cc1 (stereo not given),> 100,> 100,> 100,> 100,> 100,> 100,> 100,> 100,> 100,> 100,> 100,> 100,> 100,–,–,–
CC(=O)NC(CCCCNCc1ccccc1)C(=O)NCc1ccccc1 (stereo not given),> 100,> 100,> 100,> 100,> 100,> 100,> 100,> 100,> 100,> 100,> 100,> 100,> 100,–,–,–
O=C1C(Cl)C(c2ccccc2Cl)N1n1cnc2ccccc2c1=O (stereo not given),59.4,72.5,> 100,> 100,> 100,> 100,> 100,–,> 100,> 100,67.3,> 100,85.2,–,–,–
CCOc1ccc(N(CC(=O)N2CC(=O)Nc3cc(C)c(C)cc32)C(C)=O)cc1,> 100,> 100,> 100,> 100,–,> 100,> 100,> 100,> 100,> 100,> 100,> 100,> 100,–,–,–
N#C/C(c1nc2ccccc2[nH]1)=c1\s/c(=C/c2ccccc2)c(=O)n1-c1ccccc1,> 100,> 100,> 100,> 100,> 100,> 100,> 100,> 100,> 100,> 100,–,> 100,> 100,–,–,–
CCc1cccc(C(C)C)c1NC(=O)/C(=N\NC(N)=O)C(C(=O)OC)c1cnc2ccccc2n1 (stereo not given),> 100,> 100,–,35.1,> 100,76.5,> 100,> 100,> 100,> 100,> 100,> 100,71.9,–,–,–
N#CC(NNC(=O)Cc1ccccc1)c1ccc([N+](=O)[O-])cc1 (stereo not given),> 100,> 100,> 100,> 100,> 100,> 100,> 100,> 100,–,> 100,> 100,> 100,> 100,–,–,–
CCOC(=O)c1c(CN2CCNCC2)nc2ccc(Cl)cc2c1-c1ccccc1,9.5,21.3,4.89,2.16,17.1,17.7,3.85,7.56,23.4,3.26,10.7,21.6,9.41,12.4,28.6,20.6
Cc1cc(N(CCC#N)CCC#N)ccc1/C=C1N=C(/C=C\c2ccccc2)N(NC(=O)CC(=O)Nc2ccccc2Cl)C\1=O,> 100,> 100,> 100,> 100,> 100,> 100,> 100,> 100,–,> 100,–,> 100,> 100,–,–,–

# Source: PubChem BioAssay (NCI)
